From patent publication US20230219904A1 (SYNGENTA CROP PROTECTION AG, priority 2020, published 2023)

Legend:
Assay type in all cases: in vivo
[1] = tested on: Abutilon theophrasti (ABUTH); assay: Pre-emergence herbicidal glasshouse test (Table B1); conditions: applied at 500 g/h, evaluated after 13 days
Outline: (§1)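 Application rate was 500 g/h unless otherwise indicated, as a spray prepared from acetone/water (50:50) containing 0.5% Tween 20. Treatment followed one day (pre-emergence) or 8 days (post-emergence) of glasshouse growth, and percentage plant damage was assessed 13 days later on a 1–5 scale.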

[2] = tested on: Amaranthus retoflexus (AMARE); assay: as above; conditions: applied at 500 g/h, evaluated after 13 days
Outline: as §1

[3] = tested on: Echinochloa crus-galh (ECHCG); assay: as above; conditions: applied at 500 g/h, evaluated after 13 days
Outline: as §1

[4] = tested on: Ipomoea hederacea (IPOHE); assay: as above; conditions: applied, evaluated after 13 days
Outline: as §1

Setaria faberi (SETFA) [5] = assay: as above; conditions: applied at 500 g/h, evaluated after 13 days
Outline: as §1

[6] = tested on: Abutilon theophrasti (ABUTH); assay: Post-emergence herbicidal glasshouse test (Table B1); conditions: applied at 500 g/h, evaluated after 13 days
Outline: as §1

[7] = tested on: Amaranthus retoflexus (AMARE); assay: as above; conditions: applied at 500 g/h, evaluated after 13 days
Outline: as §1

[8] = tested on: Echinochloa crus-galh (ECHCG); assay: as above; conditions: applied at 500 g/h, evaluated after 13 days
Outline: as §1

[9] = tested on: Ipomoea hederacea (IPOHE); assay: as above; conditions: applied at 500 g/h, evaluated after 13 days
Outline: as §1

Setaria faberi (SETFA) [10] = assay: as above; conditions: applied at 500 g/h, evaluated after 13 days
Outline: as §1

SMILES: CCn1nnnc1NC(=O)c1ccc(OC(F)(F)F)c(NC(=O)c2ccccn2)c1Cl [Compound 1.128]
- PRE Application ABUTH, percentage damage on five-point scale [1]: 4 (4=60-79%)
- PRE Application AMARE, percentage damage on five-point scale [2]: 5 (5=80-100%)
- PRE Application ECHCG, percentage damage on five-point scale [3]: 3 (3=40-59%)
- PRE Application IPOHE, percentage damage on five-point scale [4]: 1 (1=0-19%)
- PRE Application SETFA, percentage damage on five-point scale (Setaria faberi (SETFA) [5]): 1 (1=0-19%)
- POST Application ABUTH, percentage damage on five-point scale [6]: 5 (5=80-100%)
- POST Application AMARE, percentage damage on five-point scale [7]: 5 (5=80-100%)
- POST Application ECHCG, percentage damage on five-point scale [8]: 5 (5=80-100%)
- POST Application IPOHE, percentage damage on five-point scale [9]: 5 (5=80-100%)
- POST Application SETFA, percentage damage on five-point scale (Setaria faberi (SETFA) [10]): 5 (5=80-100%)

SMILES: CCCn1nnnc1NC(=O)c1ccc(OC(F)(F)F)c(NC(C)=O)c1Cl [Compound 1.129]
- PRE Application ABUTH, percentage damage on five-point scale [1]: 5 (5=80-100%)
- PRE Application AMARE, percentage damage on five-point scale [2]: 5 (5=80-100%)
- PRE Application ECHCG, percentage damage on five-point scale [3]: 4 (4=60-79%)
- PRE Application IPOHE, percentage damage on five-point scale [4]: 2 (2=20-39%)
- PRE Application SETFA, percentage damage on five-point scale (Setaria faberi (SETFA) [5]): 1 (1=0-19%)
- POST Application ABUTH, percentage damage on five-point scale [6]: 5 (5=80-100%)
- POST Application AMARE, percentage damage on five-point scale [7]: 5 (5=80-100%)
- POST Application ECHCG, percentage damage on five-point scale [8]: 5 (5=80-100%)
- POST Application IPOHE, percentage damage on five-point scale [9]: 5 (5=80-100%)
- POST Application SETFA, percentage damage on five-point scale (Setaria faberi (SETFA) [10]): 5 (5=80-100%)

SMILES: COCC(=O)Nc1c(OC(F)(F)F)ccc(C(=O)Nc2nnnn2C)c1Cl [Compound 1.130]
- PRE Application ABUTH, percentage damage on five-point scale [1]: 4 (4=60-79%)
- PRE Application AMARE, percentage damage on five-point scale [2]: 5 (5=80-100%)
- PRE Application ECHCG, percentage damage on five-point scale [3]: 2 (2=20-39%)
- PRE Application IPOHE, percentage damage on five-point scale [4]: 1 (1=0-19%)
- PRE Application SETFA, percentage damage on five-point scale (Setaria faberi (SETFA) [5]): 1 (1=0-19%)
- POST Application ABUTH, percentage damage on five-point scale [6]: 5 (5=80-100%)
- POST Application AMARE, percentage damage on five-point scale [7]: 5 (5=80-100%)
- POST Application ECHCG, percentage damage on five-point scale [8]: 5 (5=80-100%)
- POST Application IPOHE, percentage damage on five-point scale [9]: 4 (4=60-79%)
- POST Application SETFA, percentage damage on five-point scale (Setaria faberi (SETFA) [10]): 5 (5=80-100%)

SMILES: CCn1nnnc1NC(=O)c1ccc(OC(F)F)c(NC(=O)CC2CC2)c1Cl [Compound 1.131]
- PRE Application ABUTH, percentage damage on five-point scale [1]: 5 (5=80-100%)
- PRE Application AMARE, percentage damage on five-point scale [2]: 5 (5=80-100%)
- PRE Application ECHCG, percentage damage on five-point scale [3]: 3 (3=40-59%)
- PRE Application IPOHE, percentage damage on five-point scale [4]: 1 (1=0-19%)
- PRE Application SETFA, percentage damage on five-point scale (Setaria faberi (SETFA) [5]): 1 (1=0-19%)
- POST Application ABUTH, percentage damage on five-point scale [6]: 5 (5=80-100%)
- POST Application AMARE, percentage damage on five-point scale [7]: 5 (5=80-100%)
- POST Application ECHCG, percentage damage on five-point scale [8]: 5 (5=80-100%)
- POST Application IPOHE, percentage damage on five-point scale [9]: 5 (5=80-100%)
- POST Application SETFA, percentage damage on five-point scale (Setaria faberi (SETFA) [10]): 4 (4=60-79%)

SMILES: CCCn1nnnc1NC(=O)c1ccc(OC(F)(F)F)c(NC(=O)c2ccccn2)c1Cl [Compound 1.132]
- PRE Application ABUTH, percentage damage on five-point scale [1]: 4 (4=60-79%)
- PRE Application AMARE, percentage damage on five-point scale [2]: 5 (5=80-100%)
- PRE Application ECHCG, percentage damage on five-point scale [3]: 3 (3=40-59%)
- PRE Application IPOHE, percentage damage on five-point scale [4]: 4 (4=60-79%)
- PRE Application SETFA, percentage damage on five-point scale (Setaria faberi (SETFA) [5]): 1 (1=0-19%)
- POST Application ABUTH, percentage damage on five-point scale [6]: 5 (5=80-100%)
- POST Application AMARE, percentage damage on five-point scale [7]: 5 (5=80-100%)
- POST Application ECHCG, percentage damage on five-point scale [8]: 5 (5=80-100%)
- POST Application IPOHE, percentage damage on five-point scale [9]: 5 (5=80-100%)
- POST Application SETFA, percentage damage on five-point scale (Setaria faberi (SETFA) [10]): 5 (5=80-100%)

SMILES: Cc1nnc(NC(=O)c2ccc(OC(F)(F)F)c(N(C)C)c2Cl)o1 [Compound 2.001, 2-chloro-3-(dimethylamino)-N-(5-methyl-1,3,4-oxadiazol-2-yl)-4-(trifluoromethoxy)benzamide]
- PRE Application ABUTH, percentage damage on five-point scale [1]: 4 (4=60-79%)
- PRE Application AMARE, percentage damage on five-point scale [2]: 5 (5=80-100%)
- PRE Application ECHCG, percentage damage on five-point scale [3]: 5 (5=80-100%)
- PRE Application IPOHE, percentage damage on five-point scale [4]: 3 (3=40-59%)
- PRE Application SETFA, percentage damage on five-point scale (Setaria faberi (SETFA) [5]): 5 (5=80-100%)
- POST Application ABUTH, percentage damage on five-point scale [6]: 4 (4=60-79%)
- POST Application AMARE, percentage damage on five-point scale [7]: 5 (5=80-100%)
- POST Application ECHCG, percentage damage on five-point scale [8]: 5 (5=80-100%)
- POST Application IPOHE, percentage damage on five-point scale [9]: 5 (5=80-100%)
- POST Application SETFA, percentage damage on five-point scale (Setaria faberi (SETFA) [10]): 5 (5=80-100%)

SMILES: CC(=O)Nc1c(OC(F)(F)F)ccc(C(=O)Nc2nnc(C)o2)c1Cl [Compound 2.002]
- PRE Application ABUTH, percentage damage on five-point scale [1]: 3 (3=40-59%)
- PRE Application AMARE, percentage damage on five-point scale [2]: 1 (1=0-19%)
- PRE Application ECHCG, percentage damage on five-point scale [3]: 1 (1=0-19%)
- PRE Application IPOHE, percentage damage on five-point scale [4]: 1 (1=0-19%)
- PRE Application SETFA, percentage damage on five-point scale (Setaria faberi (SETFA) [5]): 1 (1=0-19%)
- POST Application ABUTH, percentage damage on five-point scale [6]: 5 (5=80-100%)
- POST Application AMARE, percentage damage on five-point scale [7]: 5 (5=80-100%)
- POST Application ECHCG, percentage damage on five-point scale [8]: 5 (5=80-100%)
- POST Application IPOHE, percentage damage on five-point scale [9]: 5 (5=80-100%)
- POST Application SETFA, percentage damage on five-point scale (Setaria faberi (SETFA) [10]): 5 (5=80-100%)
